Several values for one entry are separate records, joined by “and”; a condition that tells them apart may be missing. Equal values may be shown once. Entries after “also recorded” stand apart in the source; their conditions may differ. Read-outs that look alike come from different tables or passages of the source.
Columns and labels:
gastric tissue = experiment: lipid peroxidation (MDA content of gastric tissue); type: in vivo; details: for MDA content (lipid peroxidation): as repeated in Table 4, the values are: MDA content (lipid peroxidation); for Nanomoles of MDA Content ± SEM/ 100 mg Tissue: gastric tissue
Procedure: Gastrointestinal (GI) ulceration, bleeding, and renal problems are common complications of NSAID’S consumption, which is directly related to lipid peroxidation. […] It was measured as the nmol of MDA/100 mg of gastric tissue. We have found the Lipid peroxidation value was maximum 6.71 ± 0.18 for indomethacin, whereas 3.89 ± 0.17, 4.08 ± 0.22, 4.26 ± 0.12, and 4.81 ± 0.13 for compounds 4i, 4c, 4f, and 4n, respectively.
The method adopted for lipid peroxidation is the same as Ohkawaet al. and the recent work of our researchers.

[1] = test system: acetic acid-induced writhing; experiment: acetic acid-induced writhing method (analgesic activity); type: in vivo, Swiss albino mice; details: for inhibition in vivo at 10 mg/kg: Mus musculus, read-out: % Analgesic Activity; for Potency (analgesic): relative to indomethacin = 1.00; for Mean with ± SEM: writhes counted for 15 min; for analgesic activity (in words): compared with standard indomethacin
Procedure: All the tested compounds and standard drugs are evaluated at 10 mg/kg oral dose.
The analgesic activity of the tested compounds was carried out by acetic acid-induced writhing method as given in the literature using Swiss albino mice of either sex (25–35 g). The writh were induced in the albino mice using an intraperitoneal injection of 1% acetic acid solution. The standard drug indomethacin and test compounds were evaluated at a concentration of 10 mg/kg of the body weight. The animals were divided into groups and each group consisted of six animals. One group was kept as control, one as standard, and other as test groups. To the control group, 0.1% CMC solution was administered p.o; to the standard group, the standard drug was administered orally, and to the test group, test compounds were administered orally. After 60 min of the 0.1% CMC solution/standard drug/tested compound administration, 0.1 ml of 1% (v/v) acetic acid solution in distilled water was injected intraperitoneally in all the mice in each group including the control group. The writhing (a contraction of the abdomen, turning of trunk, and extension of hind limbs) was counted after 5 min of acetic acid administration and were counted for a period of 15 min. The percentage of analgesic activity was calculated using the following formula.
(Mean wriths of control—mean wriths of std./test) / mean wriths of control) × 100

gastric mucosal damage = experiment: acute ulcerogenic activity (severity index of gastric mucosal damage); type: in vivo, Wistar rats; details: for Severity Index: test compounds 30 mg/kg oral, indomethacin 10 mg/kg or 20 mg/kg, 17 h after dose, mean ± SEM
Procedure: Four compounds, namely, 4c (Ar = 4-chlorophenyl), 4f (Ar = 2-chlorophenyl), 4i (Ar = 4-fluoro-3-chlorophenyl), and 4n (Ar = 2-methylphenyl) were selected for their ulcerogenic activity. This selection was based on their anti-inflammatory and analgesic activity. Compounds were evaluated at an oral dose of 30 mg/kg relative to 10 mg/kg indomethacin.
Acute ulcerogenic activity evaluation of the synthesized compounds was carried out according to the method described using Wistar rats of either sex (180–220 g). The animals were distributed into control, group, and test group. Each group consisted of six rats. All the rats fasted for 24 h with free access to water. To the control group, 1% CMC solution was administered p.o; to the standard group, indomethacin at a concentration of 20 mg/kg was administered orally; and to the test groups, tested compounds were administered orally at a concentration of 30 mg/kg. After the dose administration animals were kept for 17 h. After this, the animals were sacrificed for the appraisal of ulcerogenic assessment. The stomach was taken out from the animal body and washed with flushing water, then with a cotton swab wetted with saline (0.9%) and pinned on wax-coated try. The glandular portion of the stomach was cleaned again with saline to closely identify the presence of a type of ulcers or hemorrhage mark using a magnifying glass. The mucosal injury of the stomach was evaluated as per the following system: 0.5 = redness; 1 = spot ulcer; 1.5 = hemorrhage streak; 2 = ulcers < 3; 3 = ulcers > 3 < 5. The value obtained as a result of the mean score of the individual treated group—mean score of control is referred to as the severity index of the gastric mucosal damage.

Rat Paw Edema = experiment: carrageenan-induced hind paw edema method (anti-inflammatory activity); type: in vivo, Wistar albino rats; details: for inhibition in vivo at 10 mg/kg: Rattus norvegicus, po; for inhibition in vivo at 10 mg/kg / % Age Inhibition of Rat Paw Edema, 4 H / anti-inflammatory activity (in words): oral dose 10 mg/kg; for inhibition in vivo at 10 mg/kg / % Age Inhibition of Rat Paw Edema, 4 H: mean ± SEM; for Potency (anti-inflammatory): relative to indomethacin = 1.00; for anti-inflammatory activity (in words): compared with standard indomethacin
Procedure: The anti-inflammatory activity of the synthesized compounds (4a–n) was evaluated by the carrageenan-induced paw edema method. An oral dose of 10 mg/kg was used for compounds and compared with the standard. Anti-inflammatory activity was accessed through percentage inhibition after 2 and 4 h (Table 1).
Compounds produced were assessed for their anti-inflammatory activity using the carrageenan-induced hind paw edema method. The anti-inflammatory activity was carried out using Wistar albino rats of either sex (150–220 g) using a Digital Plethysmometer (Model No. 7140, UGO BASILE). The edema was induced by using 1% carrageenan solution. Indomethacin was used as a standard drug. The anti-inflammatory activity of the standard drug and tested compounds was determined at a dose of 10 mg/kg body weight. The animals were divided into groups containing six animals each and the initial paw volume of each rat was noted by the NaCl displacement method. One group was kept as control, one as standard, and the rest of the groups of compounds were to be tested. To the control group, 1% CMC solution was administered p.o. To the standard group, the standard drug was administered orally. To the test group, tested compounds were administered orally. After 60 min of the 1% CMC solution/standard drug/test compound administration, 0.1 ml of 1% (w/v) carrageenan was injected in the plantar region of the hind limb (right) of all the rats in each group including the control group. The paw volume was again measured after the time interval of 2 and 4 h. Using the following formula, inflammation was calculated as percentage inhibition for the test and reference compounds
(Final foot volume of control—final foot volume of std./test) × 100 / final foot volume of control)

[2] = 2 h, 2 h, read-out: % Age Inhibition of Rat Paw Edema, 2 H
[3] = 4 h, 4 h, read-out: % Age Inhibition of Rat Paw Edema, 4 H

SMILES | melting point | MDA content (lipid peroxidation) (gastric tissue) | Nanomoles of MDA Content ± SEM/ 100 mg Tissue (gastric tissue) | inhibition in vivo at 10 mg/kg ([1]; oral dose 10 mg/kg, mean ± SEM) | Potency (analgesic) ([1]; 10 mg/kg) | Mean with ± SEM ([1]; oral dose 10 mg/kg) | Severity Index (gastric mucosal damage) | inhibition in vivo at 10 mg/kg (Rat Paw Edema; [2]) | inhibition in vivo at 10 mg/kg (Rat Paw Edema; [3]) | Potency (anti-inflammatory) (Rat Paw Edema; 10 mg/kg) | analgesic activity (in words) ([1]; oral dose 10 mg/kg) | severity index as share of the severity shown by the standard (gastric mucosal damage; relative to indomethacin) | Nanomoles of MDA Content ± SEM/ 100 mg Tissue (gastric tissue; listed as indomethacin) | % Analgesic Activity ([1]; oral dose 10 mg/kg, mean ± SEM, 10 mg/kg) | % Age Inhibition of Rat Paw Edema, 4 H (Rat Paw Edema; 4 h, 10 mg/kg) | analgesic activity (in words) ([1]; oral dose 10 mg/kg, 10 mg/kg) | anti-inflammatory activity (in words) (Rat Paw Edema) | anti-inflammatory activity (in words) (Rat Paw Edema; 10 mg/kg)
Cc1ccccc1NCN1C(=O)C(=NNc2nc(-c3cc4ccccc4oc3=O)cs2)c2ccccc21 [Compound 4n, 3-{[4-(2-Oxo-2H-chromen-3-yl)-thiazol-2-yl]-hydrazono}-1-(o-tolylamino-methyl)-1,3-dihydro-indol-2-one] | 237 to 239 °C | 4.81 ± 0.13 nmol MDA/100 mg tissue | 4.81 ± 0.13 nmol of MDA/100 mg of gastric tissue | 69.14 ± 0.689% | 0.93 | 10.00 ± 0.3651 |  | 42.57 ± 0.213% | 69.58 ± 0.133% | 0.84 | very good analgesic activity | 20% |  |  |  |  |  | 
COc1ccc2c(c1)c(CC(=O)O)c(C)n2C(=O)c1ccc(Cl)cc1 [Indomethacin, reference compound] |  |  | 6.71 ± 0.18 nmol of MDA/100 mg of gastric tissue | 73.6% | 1.00 | 8.55 ± 0.394 | 4.500 ± 0.316 | 66.34 ± 0.051% | 82% | 1.00 |  |  | 6.71 ± 0.18 nmol of MDA/100 mg of gastric tissue | 73.61 ± 0.315 % | 82.05 ± 0.08% |  |  | 
O=C1C(=NNc2nc(-c3cc4ccccc4oc3=O)cs2)c2ccccc2N1CNc1ccncc1 [Compound 4j, 3-{[4-(2-Oxo-2H-chromen-3-yl)-thiazol-2-yl]-hydrazono}-1-(pyridine-4-ylaminomethyl)-1,3-dihydro-indol-2-one] | 237 to 239 °C |  |  | 47.14 ± 0.402% | 0.64 | 17.13 ± 0.539 |  | 53.81 ± 0.12% | 77.9% | 0.94 |  |  |  |  |  |  |  | good anti-inflammatory activity; also recorded: significant anti-inflammatory activity
O=C1C(=NNc2nc(-c3cc4ccccc4oc3=O)cs2)c2ccccc2N1CNc1ccccc1[N+](=O)[O-] [Compound 4e, 1-[(2-Nitro-phenylamino)-methyl]-3-{[4-(2-oxo-2H-chromen-3-yl)-thiazol-2-yl]-hydrazono}-1,3-dihydro-indol-2-one] | 244 to 246 °C |  |  | 47.9 ± 1% | 0.65 | 16.88 ± 0.222 |  | 62.24 ± 0.08% | 48.6 ± 0.09% | 0.59 |  |  |  |  |  |  |  | 
O=C1C(=NNc2nc(-c3cc4ccccc4oc3=O)cs2)c2ccccc2N1CNc1ccc([N+](=O)[O-])cc1 [Compound 4l, 1-[(4-Nitro-phenylamino)-methyl]-3-{[4-(2-oxo-2H-chromen-3-yl)-thiazol-2-yl]-hydrazono}-1,3-dihydro-indol-2-one] | 241 to 243 °C |  |  | 44.98 ± 0.336% | 0.61 | 17.83 ± 0.3079 |  | 54.76 ± 0.228% | 80.9% | 0.98 |  |  |  |  | 80.94 ± 0.149 % |  |  | good anti-inflammatory activity; also recorded: highest anti-inflammatory activity

More lines, main results first:

melting point | MDA content (lipid peroxidation) (gastric tissue) | SMILES | Nanomoles of MDA Content ± SEM/ 100 mg Tissue (gastric tissue) | inhibition in vivo at 10 mg/kg ([1]; oral dose 10 mg/kg, mean ± SEM) | Potency (analgesic) ([1]; 10 mg/kg) | Mean with ± SEM ([1]; oral dose 10 mg/kg) | Severity Index (gastric mucosal damage) | inhibition in vivo at 10 mg/kg (Rat Paw Edema; [2]) | inhibition in vivo at 10 mg/kg (Rat Paw Edema; [3]) | Potency (anti-inflammatory) (Rat Paw Edema; 10 mg/kg) | analgesic activity (in words) ([1]; oral dose 10 mg/kg) | severity index as share of the severity shown by the standard (gastric mucosal damage; relative to indomethacin) | Nanomoles of MDA Content ± SEM/ 100 mg Tissue (gastric tissue; listed as indomethacin) | % Analgesic Activity ([1]; oral dose 10 mg/kg, mean ± SEM, 10 mg/kg) | % Age Inhibition of Rat Paw Edema, 4 H (Rat Paw Edema; 4 h, 10 mg/kg) | analgesic activity (in words) ([1]; oral dose 10 mg/kg, 10 mg/kg) | anti-inflammatory activity (in words) (Rat Paw Edema) | anti-inflammatory activity (in words) (Rat Paw Edema; 10 mg/kg)
233 to 235 °C | 4.08 ± 0.22 nmol MDA/100 mg tissue | O=C1C(=NNc2nc(-c3cc4ccccc4oc3=O)cs2)c2ccccc2N1CNc1ccc(Cl)cc1 [Compound 4c, 1-[(4-Chloro-phenylamino)-methyl]-3-{[4-(2-oxo-2H-chromen-3-yl)-thiazol-2-yl]-hydrazono}-1,3-dihydro-indol-2-one] | 4.08 ± 0.22 nmol of MDA/100 mg of gastric tissue and 4.26 ± 0.12 nmol of MDA/100 mg of gastric tissue | 59.9 ± 0.846% | 0.81 | 13.00 ± 0.2582 | 0.666 ± 0.105 | 59.29 ± 0.143% | 30.17 ± 0.294% | 0.36 |  |  |  |  |  |  |  | 
246 to 248 °C | 3.89 ± 0.17 nmol MDA/100 mg tissue | O=C1C(=NNc2nc(-c3cc4ccccc4oc3=O)cs2)c2ccccc2N1CNc1ccc(F)c(Cl)c1 [Compound 4i, 1-[(3-Chloro-4-fluoro-phenylamino)-methyl]-3-{[4-(2-oxo-2H-chromen-3-yl)-thiazol-2-yl]-hydrazono}-1,3-dihydro-indol-2-one] | 3.89 ± 0.17 nmol of MDA/100 mg of gastric tissue | 66.3 ± 1.01% | 0.90 | 10.93 ± 0.3128 | 0.500 ± 0.129 | 31.27 ± 0.188% | 63.95 ± 0.218% | 0.77 |  |  |  |  |  | very good analgesic activity; also recorded: good analgesic activity | moderate anti-inflammatory activity | 
245 to 247 °C |  | O=C1C(=NNc2nc(-c3cc4ccccc4oc3=O)cs2)c2ccccc2N1CNc1ccccc1 [Compound 4a, 3-{[4-(2-Oxo-2H-chromen-3-yl)-thiazol-2-yl]-hydrazono}-1-phenylaminomethyl-1,3-dihydro-indol-2-one] |  | 47.5 ± 0.707% | 0.64 | 17.00 ± 0.2582 |  | 38.29 ± 0.016% | 5.57 ± 0.041% | 0.06 |  |  |  |  |  |  | negligible anti-inflammatory activity | 
